Measured values reported in patent publication EP1081131A1 (priority 1998, dated 1999).

Assays:
Type in all cases: cell-based, mycobacteria of tuberculosis
[1] = test system: Strain resistant to streptomycin and rifamycin; settings: taken from patients, Sverdlovsk Regional SRI of Phthisiopulmonology 1998
[2] = test system: Strain resistant to isoniazid; settings: taken from patients, Sverdlovsk Regional SRI of Phthisiopulmonology 1998
[3] = test system: Resistant to streptomycin; experiment: Bacteriostatic activity on patient strains (Table 4); settings: taken from patients, Central SRI of Tuberculosis RAMS 1997
[4] = test system: Semiresistant (resistant to streptomycin, rifamycin and isoniazid); experiment: as above; settings: taken from patients, Central SRI of Tuberculosis RAMS 1997
Resistant to isoniazid = experiment: as above; settings: taken from patients, Central SRI of Tuberculosis RAMS 1997
Resistant to rifamycin = experiment: as above; settings: taken from patients, Central SRI of Tuberculosis RAMS 1997

Row | SMILES | Inhibiting level [1] [µg/mL] | Inhibiting level [2] [µg/mL] | Inhibiting level [3] [µg/mL] | Inhibiting level [4] [µg/mL] | Inhibiting level (Resistant to isoniazid) [µg/mL] | Inhibiting level (Resistant to rifamycin) [µg/mL]
1 | O=Cc1ccc(Cl)cc1OCCOc1cc(Cl)ccc1C=O [1,2-Bis(2-formyl-5-chlorphenoxy)-ethane] | 0.4 | 5.0 |  |  |  | 
2 | O=C(NN=Cc1c(OCCOc2ccc3ccccc3c2C=NNC(=O)c2ccccc2)ccc2ccccc12)c1ccccc1 [1,2-Bis[2(benzoyl hydrazonomethylnaphthoxy-2)]-ethane] | 0.4 | 5.0 |  |  |  | 
3 | [H]/N=C(/N)N[C@H]1[C@H](O)[C@@H](O)[C@H](O[C@@H]2O[C@@H](C)[C@](O)(C=O)[C@H]2O[C@@H]2O[C@@H](CO)[C@H](O)[C@@H](O)[C@@H]2NC)[C@@H](N/C(N)=N\[H])[C@@H]1O [Streptomycin, reference compound] | 10.0 | >50.0 |  |  |  | 
4 | O=C(NN=Cc1ccccc1OCCCCOCCCCOc1ccccc1C=NNC(=O)c1cccnc1)c1cccnc1 [1,9-Bis(2-nicotinoyl hydrazonomethylphenoxy)-5-oxanonon] | 0.4 | >5.0 |  |  |  | 
5 | O=C(NN=Cc1ccccc1OCCOCCOc1ccccc1C=NNC(=O)c1ccncc1)c1ccncc1 [1,5-Bis(2-isonicotinoyl hydrazonomethylphenoxy)-3-oxapentane] |  |  | 1.56 | 1.57 | 18.80 | 0.20
6 | CO[C@H]1/C=C/O[C@@]2(C)Oc3c(C)c(O)c4c(O)c(cc(O)c4c3C2=O)NC(=O)/C(C)=C\C=C\[C@H](C)[C@H](O)[C@@H](C)[C@@H](O)[C@@H](C)[C@H](OC(C)=O)[C@@H]1C [Rifamycin, reference compound] | 20.0 |  |  |  |  | 
7 | NNC(=O)c1ccncc1 [Isoniazid, hydrazide of isonicotinic acid, reference compound] | 0.1 | 5.0 | 0.29 | 2.125 | >100 | 0.29
8 | COc1cc(C=NNC(=O)c2ccccc2)ccc1OCCOc1ccc(C=NNC(=O)c2ccccc2)cc1OC [1,2-Bis(2-methoxy-4-benzoyl hydrazonomethylphenoxy)-ethane] | 0.8 | >5.0 |  |  |  | 
